Data taken from patent US20090131354A1, “miR-126 REGULATED GENES AND PATHWAYS AS TARGETS FOR THERAPEUTIC INTERVENTION” (priority 2007, published 2009).

Test system: A549 cells
Test: mRNA array gene expression analysis after transfection
Format: cell-based, human
Settings: A549, 30 nM

Substance: hsa-miR-126 (UCGUACCGUGAGUAAUAAUGC; synthetic pre-miR form, further chemistry not given here) [Synthetic hsa-miR-126 (Pre-miR™-hsa-miR-126, Ambion cat. no. AM17100)]
- Δ log2 LBA1 mRNA: 1.07 log2
- Δ log2 LCN2 mRNA: 1.032 log2
- Δ log2 LOC93349 mRNA: 1.021 log2
- Δ log2 LOC257407 mRNA: 1.211 log2
- Δ log2 LRP12 mRNA: −2.094 log2
- Δ log2 LXN mRNA: 1.017 log2
- Δ log2 M6PRBP1 mRNA: −1.074 log2
- Δ log2 MAP1B mRNA: −0.706 log2
- Δ log2 MAP3K1 mRNA: 1.609 log2
- Δ log2 MAPK6 mRNA: −0.81 log2
- Δ log2 MASK mRNA: −1.4 log2
- Δ log2 MAWBP mRNA: 1.126 log2
- Δ log2 MAZ mRNA: −1.133 log2
- Δ log2 MCL1 mRNA: 1.394 log2
- Δ log2 MET mRNA: −0.9508 log2
- Δ log2 MICAL2 mRNA: −1.182 log2
- Δ log2 MMP7 mRNA: 1.127 log2
- Δ log2 MR1 mRNA: 0.702 log2
- Δ log2 MTUS1 mRNA: 0.7009 log2
- Δ log2 MYBL1 mRNA: −1.008 log2
- Δ log2 NAB1 mRNA: −0.7242 log2
- Δ log2 NCF2 mRNA: −0.8706 log2
- Δ log2 NEK4 mRNA: −1.197 log2
- Δ log2 NF1 mRNA: −1.383 log2
- Δ log2 NF2 mRNA: −0.8288 log2
- Δ log2 NID1 mRNA: 0.8833 log2
- Δ log2 NPTX1 mRNA: −1.204 log2
- Δ log2 NR1H4 mRNA: 1.063 log2
- Δ log2 NR2F1 mRNA: 0.8754 log2
- Δ log2 NR4A2 mRNA: 1.19 log2
- Δ log2 NRIP1 mRNA: 0.7196 log2
- Δ log2 NUCKS mRNA: 2.05 log2
- Δ log2 OLFML3 mRNA: −1.333 log2
- Δ log2 OXTR mRNA: −1.374 log2
- Δ log2 PCAF mRNA: −1.071 log2
- Δ log2 PDCD4 mRNA: 1.094 log2
- Δ log2 PDK4 mRNA: 1.686 log2
- Δ log2 PDXK mRNA: −1.142 log2
- Δ log2 PDZK1IP1 mRNA: 0.8906 log2
- Δ log2 PEX10 mRNA: −0.7177 log2
- Δ log2 PGK1 mRNA: 1.563 log2
- Δ log2 PHACTR2 mRNA: 0.8791 log2
- Δ log2 PHTF2 mRNA: −1.334 log2
- Δ log2 PLA1A mRNA: 1.623 log2
- Δ log2 PLA2G4A mRNA: 0.8899 log2
- Δ log2 PLCB1 mRNA: 1.421 log2
- Δ log2 PLEC1 mRNA: −0.9035 log2
- Δ log2 PLK1 mRNA: −0.7295 log2
- Δ log2 PLOD2 mRNA: −1.204 log2
- Δ log2 PMCH mRNA: 0.9697 log2
- Δ log2 PMM1 mRNA: −1.034 log2
- Δ log2 PPP3CB mRNA: −1.185 log2
- Δ log2 PRKCA mRNA: −1.083 log2
- Δ log2 PRO1843 mRNA: 1.386 log2
- Δ log2 PROS1 mRNA: 1.021 log2
- Δ log2 PSME3 mRNA: −0.8427 log2
- Δ log2 PTENP1 mRNA: 0.8904 log2
- Δ log2 PTK9 mRNA: 1.028 log2
- Δ log2 PTP4A1 mRNA: 0.7259 log2
- Δ log2 PXN mRNA: −0.8029 log2
- Δ log2 Pfs2 mRNA: −0.7674 log2
- Δ log2 QDPR mRNA: −1.048 log2
- Δ log2 QKI mRNA: 0.7094 log2
- Δ log2 RAB2 mRNA: 1.459 log2
- Δ log2 RAB11FIP2 mRNA: −0.8417 log2
- Δ log2 RAB40B mRNA: 1.166 log2
- Δ log2 RABL2B /// RABL2A mRNA: −0.8805 log2
- Δ log2 RAFTLIN mRNA: 0.9753 log2
- Δ log2 RARRES1 mRNA: 1.523 log2
- Δ log2 RARRES3 mRNA: 1.399 log2
- Δ log2 RASSF2 mRNA: −1.355 log2
- Δ log2 RBP4 mRNA: 1.037 log2
- Δ log2 RGC32 mRNA: 1.701 log2
- Δ log2 RHEB mRNA: 1.113 log2
- Δ log2 RHOB mRNA: −1.015 log2
- Δ log2 RHOBTB1 mRNA: 1.197 log2
- Δ log2 RIG mRNA: 0.9993 log2
- Δ log2 RIP mRNA: 1.299 log2
- Δ log2 RNASE4 mRNA: 1.351 log2
- Δ log2 RNF14 mRNA: −1.293 log2
